# Assay results: publication PMC12767106, “In Situ Assembly of Transformable Monopeptide on Activated Neutrophils Attenuates NETs‐Induced Hepatocellular Carcinoma Metastasis by Disrupting NE Nuclear Translocation” (Advanced Science, 2025)
# What was measured:
# NE protein = biological target: T1, NE protein (Homo sapiens, UniProt P08246); assay: Transformation kinetics by PpIX fluorescence after addition of NE protein; format: physicochemical; details: 24 h incubation, NE protein/peptide ligand about 1/1000, emission about 635 nm
# T1 construct: purchased AkrivisBio MA-0156
# T1 sequence (P08246 30-267): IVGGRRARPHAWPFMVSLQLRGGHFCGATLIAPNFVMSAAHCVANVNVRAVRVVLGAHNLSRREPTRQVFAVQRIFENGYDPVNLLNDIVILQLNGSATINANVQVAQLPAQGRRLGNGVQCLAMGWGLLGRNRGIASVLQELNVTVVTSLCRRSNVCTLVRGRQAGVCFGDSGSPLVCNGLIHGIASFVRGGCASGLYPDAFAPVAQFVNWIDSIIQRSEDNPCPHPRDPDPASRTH
# Description: Submitted to Advanced Science temperature. Following the incubation, 10 µL of the solution was added to a copper mesh at 0 and 24 h. Filter paper was used to remove any extra droplets after an overnight stay. The samples were then stained for five minutes with uranyl acetate and then rinsed for one minute with water (10 µL). Finally, dried samples were observed by TEM (Talos 120C, Thermo Fisher Scientific, USA). DLS (Zetasizer Nano ZS, UK) was used to assess the solution for hydrodynamic size and zeta potential at 0 and 24 h following the incubation. Then, the nanofiber structure at 0 h and 24 h after incubation of FTP-NPs was examined with Circular Dichroism (CD) Spectra (Chirascan, UM, Britain). In addition, the variation of fluorescence emission spectra of PpIX by […]
# transformation of FTP-NPs.
# Pyrene molecules were employed as an indicator to determine the critical aggregation concentration (CAC) of nanoparticles by comparing the fluorescence of their third and first emissive peaks. […] The fluorescence spectra of pyrene (excitation, 335 nm) in different NPs dilutions were recorded. The fluorescence intensity ratio (I3/I1) of the third and first emissive peaks was measured for CAC calculation. […]
# [1] = tested on: Hepa1-6/luc HCC xenograft; assay: Subcutaneous Hepa1-6/luc tumor model, tumor growth; format: in vivo, mouse; details: C57BL/6J mice, 300 µM in 200 µL i.v. five times every two days; aPD-1 200 µg i.p. every 4 days, 3 doses; n = 5
# Description: Submitted to Advanced Science
# Total RNA was extracted and purified using a miRNeasy Mini Kit (FOREGENE, China). Quantitative real-time polymerase chain reaction (qRT-PCR) was performed in triplicate in the ABI 7500 fast real-time PCR System (Applied Biosystems, USA). The mRNAs were normalized with 18s. The following primers were used for PCR detection: E-cadherin, N-cadherin, Vimentin, and α-catenin.
# Western blot analysis was performed to evaluate the levels of relative proteins in Hepa1-6/luc cells and Neutrophils.38 To evaluate NETs release, the neutrophils were exposed to PMA, PMA+NFTP -NPs, and PMA+FTP-NPs for 12 h. Following treatment, the cells underwent three PBS washes for WB to measure the expression of CitH3 proteins (Cat. no. ab5103, Abcam, Cambridge, England , UK). Furthermore, to evaluate EMT of Hepa1-6/luc cells, the cells underwent three PBS washes for WB to measure the expression of E - cadherin (Abmart, China), N-cadherin (Abmart, China), Vimentin (Abmart, China) , and β-catenin (Abmart, […]
# In vivo subcutaneously implanted tumor models
# The C57BL/6J mice with subcutaneous Hepa1-6/luc xenografts (grew up to roughly 100 mm 3) were separated into four groups according to the different treatments to perform the in vivo tumor therapy. […] Throughout the experiment, the tumor volumes and body weight were measured once every four days. […]
substance,measurement,setting,value
PpIX-GFFVLK-EAIPMSIPPEVK [FTP-NPs],fluorescence intensity of PpIX after addition of NE protein,NE protein,78.3%
same,tumor growth / increase in tumor volume,[1],significant efficacy in suppressing tumor growth
